# Test results: patent publication US10351548B2, “2-oxo-1,2-dihydropyridine-3-carboxamide compounds and their use as inhibitors of PDK1” (INTERNATIONAL SOCIETY FOR DRUG DEVELOPMENT S.R.L., priority 2015, dated 2019)
# System: GSCs isolated from U87MG cells
# Assay: Annexin V and 7-AAD staining in GSCs (apoptosis)
# Type: cell-based, human
# Conditions: 10 μM, 7 days
# Protocol: Dual staining with Annexin V coniugated to fluorescein-isothiocyanate (FITC) and 7-amino-actinomysin (7-AAD) was performed using the commercially available kit (Muse Annexin V and Dead Cell Kit; Merck KGaA, Darmstadt, Germany). U87MG cells or GSCs were treated with DMSO (control), SA16, SA23 or IB35 for 72 h or seven days, respectively. At the end of the treatment periods, the percentages of living, apoptotic and dead cells were acquired and analysed by Muse™ Cell Analyzer as previously described (Daniele, S., et al., Combined inhibition of AKT/mTOR and MDM2 enhances Glioblastoma Multiforme cell apoptosis and differentiation of cancer stem cells. Sci. Rep., 2015. 5.).
# It was investigated if the reduction of cell proliferation elicited by the two compounds could be associated to cell apoptosis. […] At the end of treatments, the cells were collected and the degree of phosphatidylserine externalisation was evaluated using the Annexin V protocol, as above described (FIG. 10). The data were expressed as the percentage of apoptotic cells (early-apoptotic in white, late-apoptotic/necrotic in grey) relative to the total number of cells and represented in FIG. 11. […] The significance of the differences was determined with a one-way ANOVA with Bonferroni post-test (*** p<0.001 vs. control).
compound,measurement,value
"O=C(CNC(=O)c1cccn(Cc2ccc(F)c(F)c2)c1=O)Nc1ccc2c(c1)/C(=C/c1cnc[nH]1)C(=O)N2 [IB35, (Z)—N-(2-((3-((1H-imidazol-5-yl)methylene)-2-oxoindolin-5-yl)amino)-2-oxoethyl)-1-(3,4-difluorobenzyl)-2-oxo-1,2-dihydro pyridine-3-carboxamide]",percentage of total apoptotic cells,38.5±3.9%
